# US20140094521A1, “BENZYLAMINE DERIVATIVE” (priority 2011, published 2014)
# Key:
# Type in all cases: cell-based
# [1] = system: SP cell of human multiple myeloma cell line RPMI8226; test: Anticancer activity against SP cell (Hoechst33342 flow cytometry); details: 5 μM
# Procedure: A stem cell can undergo differentiation into various tissues and cells such as a hematopoietic stem cell, and has the quality to exclude fluorescent chemical substance such as Hoechst33258 extracellularly. […] A cell having such properties is called as an SP cell, i.e. Side Population Cell. […] Therefore, an effect of the present invention compound against a cancerous SP cell was examined.
# Specifically, human multiple myeloma cell line RPMI8226 was incubated in the presence of the present invention compound similarly to Example 4. The cell was dispersed in 3% FBS DMEH so that the concentration became 1×10^6 cells/mL. A temperature of the dispersion was increased to 37° C., and then Hoechst33342 was added thereto so that the concentration thereof became 5 μg/ml. The mixture was incubated at 37° C. for 60 minutes under a shaded state with stirring every 20 minutes. Then, the mixture was centrifuged at 800×g for 3 minutes, and the supernatant was removed. Further, a washing procedure in which cooled 2% FES PBS was added, the mixture was centrifuged and the supernatant was removed was repeated two times. Separately, propidium iodide was dissolved in PBS to obtain a 200 μg/mL solution. […] The emitted fluorescence was passed through a bandpass filters of 450 nm and 675 nm, and deployed to obtain a two-dimensional dot plot. […]
# [2] = system: Human multiple myeloma cell line RPMI8226; test: Anticancer activity against multiple myeloma cell (Cell Counting Kit-8, 3 days); details: RPMI-8226, 72 h, read-out: IC50 value against a multiple myeloma cell
# Procedure: Human multiple myeloma cell line RPMI8226 was seeded on a 96 well plate in a density of 1×10^4 cells/well, and incubated under 5% carbon dioxide atmosphere at 37° C. overnight. Separately, the compound obtained in Example 2 was dissolved in dimethylsulfoxide, and added to each well so that the final concentration of the compound became 0.5 μM, 1 μM, 2 μM, 3 μM, 12.5 μM, 25 μM or 50 μM.
# In addition, melphalan, which is a multiple myeloma therapeutic agent, was added to each well so that the final concentration of the compound became 10 μM, 20 μM, 30 μM, 40 μM or 50 μM as positive controls for comparison. Further, an experimental case in which only dimethylsulfoxide was added in the final concentration of 0.5 v/v % without adding the compound was provided.
# Then, after the cell was cultured under 5% carbon dioxide atmosphere at 37° C. for 3 days, an absorbance of formazan, which is an orange pigment produced by a living cell, at the wavelength of 420 nm was measured using a reagent for measuring cell proliferation/cytotoxicity (manufactured by Dojin Chemical Co., Cell Counting Kit-8). […] In addition, IC50 values were calculated from the obtained results.
# [3] = system: Human multiple myeloma cell line RPMI8226; test: Survival rate of blood cancer cells (WST-8, 72 hours); details: RPMI-8226, 72 h, read-out: EC50, Multiple myeloma cell
# Procedure: (§1) Human acute myelogenous leukemia cell line KG1 and human promyelocytic leukemia cell line HL60 in addition to human multiple myeloma cell line RPMI8226 were seeded in a highly nutrient medium containing 10% FES (RPMI1640, 100 μL) in a density of 1×10^3 cells/well. The cells were incubated under 5% carbon dioxide atmosphere at 37° C. overnight. Separately, the compound of Example 2 was dissolved in DMSO and the obtained solution was diluted with the same culture medium. The mixture was added to each well so that the final concentrations of the compound became 0.39 μM, 0.78 μM, 1.56 μM, 3.13 μM, 6.25 μM, 12.5 μM or 50 μM.
# (§2) In addition, melphalan, which is a multiple myeloma therapeutic agent, was added to each well at the same final concentrations as positive controls for comparison. Further, an experimental case in which only dimethylsulfoxide was added in the final concentration of 0.2 to 0.8 v/v % without adding the compound was provided.
# (§3) Then, after the cells were cultured under 5% carbon dioxide atmosphere at 37° C. for 72 hours, the culture medium was removed and a culture medium obtained by mixing 100 μL of the above culture medium and 10 μL of WST-8, which is a reagent for measuring a cell number, was added to each well. After the cells were cultured under 5% carbon dioxide atmosphere at 37° C. for 2 hours, an absorbance at 450 nm was measured. The absorbance value when the cells were treated with DMSO only was set to be 100%, and a ratio of absorbance values at each concentration of the present invention compound or melphalan relative to the value were calculated as survival rate of each blood cancer cell. In addition, EC50, i.e. 50% effective concentration value, of each compound against each blood cancer cell was calculated from the obtained results.
# [4] = system: Human acute myelogenous leukemia cell line KG1; test: as above; details: read-out: EC50, Acute myelogenous leukemia cell
# Procedure: as §1, §2, §3
# [5] = system: human promyelocytic leukemia cell line HL60; test: as above; details: HL-60, 72 h, read-out: EC50, Promyelocytic leukemia cell
# Procedure: as §1, §2, §3
compound,measurement,setting,value
"N[C@@H](Cc1ccc(N(CCCl)CCCl)cc1)C(=O)O [Melphalan, melphalan]",ratio of stained cells in SP region relative to the total cells,[1]; control (0.5% DMSO only) 0.680 ± 0.0173%,0.563 ± 0.0777%
same,ratio of stained cells in Non-SP region relative to the total cells,[1]; control (0.5% DMSO only) 19.2 ± 0.295%,5.05 ± 0.414%
same,IC50,[2],21 µM
same,EC50,[3],9.82 µM
same,EC50,[4],3.69 µM
same,EC50,[5],0.734 µM
